We go through 21 compounds from US20250129049A1, “1H-PYRAZOLE-3-AMINE DERIVATIVE HAVING BICYCLIC BACKBONE” (Sumitomo Pharma Co., Ltd., priority 2021, published 2025).

What is called IC50 is the midpoint of a concentration-inhibition curve. A lower IC50 goes with greater potency in that assay.

One test relates to ES-2 cells. Put plainly: Cell growth suppression experiment (ES-2). To be noted: Homo sapiens, 48 h, cultured 2 days, CellTiter-Glo 3D. The class given is cell-based. The protocol:
ES-2 cells were obtained from the American Type Culture Collection (ATCC). These cells were cultured at 37° C. in the presence of 5% CO2 in a McCoy's 5a medium containing 10% fetal bovine serum and 1% penicillin/streptomycin.
500 cells were seeded for each well in a 384-well plate, and the evaluated compound was added to the final DMSO concentration of 0.1% to culture the cells for 2 days. After completion of the culture, the cell viability rate was calculated using CellTiter-Glo (registered trademark) 3D Reagent (Promega, G968B).

A further test addresses CHK1 kinase (Homo sapiens (Human), UniProt O14757).

SMILES strings stand for the structures.

CHK1 kinase, sequence (O14757 whole entry): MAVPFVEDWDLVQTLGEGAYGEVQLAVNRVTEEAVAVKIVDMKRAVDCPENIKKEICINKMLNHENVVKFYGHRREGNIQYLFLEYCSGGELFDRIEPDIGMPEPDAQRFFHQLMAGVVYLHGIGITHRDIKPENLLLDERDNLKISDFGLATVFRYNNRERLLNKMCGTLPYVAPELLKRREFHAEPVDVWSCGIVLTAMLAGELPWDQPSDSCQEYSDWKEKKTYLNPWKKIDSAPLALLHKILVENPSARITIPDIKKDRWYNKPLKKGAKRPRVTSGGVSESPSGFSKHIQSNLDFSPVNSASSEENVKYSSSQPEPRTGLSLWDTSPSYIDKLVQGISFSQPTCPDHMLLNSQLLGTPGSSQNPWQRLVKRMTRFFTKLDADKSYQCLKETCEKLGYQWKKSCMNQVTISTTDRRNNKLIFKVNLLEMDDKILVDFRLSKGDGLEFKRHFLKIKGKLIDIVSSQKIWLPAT

Turning to `N#Cc1cnc(Nc2cc(-c3c(OCCCN)ccc4cccnc34)[nH]n2)cn1` [Example 1, 5-({5-[7-(3-aminopropoxy)quinolin-8-yl]-1H-pyrazol-3-yl}amino)pyrazine-2-carbonitrile], the results for the IC50 with ES-2 cells and at CHK1 kinase were 4.9 nM and 0.37 nM, respectively.

Consider `N#Cc1cnc(Nc2cc(-c3c(OCCCN)ccc4ccoc34)[nH]n2)cn1` [Example 2, 5-({5-[6-(3-aminopropoxy)-1-benzofuran-7-yl]-1H-pyrazol-3-yl}amino)pyrazine-2-carbonitrile], for which the IC50 turned out to be 2.9 nM in the test with ES-2 cells and 0.25 nM on CHK1 kinase.

On to `CC1(COc2ccc3c(c2-c2cc(Nc4cnc(C#N)cn4)n[nH]2)OCC3)CNC1` [Example 5, 5-[(5-{6-[(3-methylazetidin-3-yl)methoxy]-2,3-dihydro-1-benzofuran-7-yl}-1H-pyrazol-3-yl)amino]pyrazine-2-carbonitrile], for which the IC50 in the test on ES-2 cells was found to be 6.7 nM.

Consider `N#Cc1cnc(Nc2cc(-c3c(OCCCN)cnc4ccnn34)[nH]n2)cn1` [Example 7, 5-({5-[6-(3-aminopropoxy)pyrazolo[1,5-a]pyrimidin-7-yl]-1H-pyrazol-3-yl}amino)pyrazine-2-carbonitrile], for which the IC50 in the test with ES-2 cells was 469 nM; against CHK1 kinase, 1.71 nM.

In the case of `N#Cc1cnc(Nc2cc(-c3c(OCC(F)(F)CN)cnc4cccnc34)[nH]n2)cn1` [Example 9, 5-({5-[3-(3-amino-2,2-difluoropropoxy)-1,5-naphthyridin-4-yl]-1H-pyrazol-3-yl}amino)pyrazine-2-carbonitrile], the IC50 in the test on ES-2 cells stood at 4.7 nM; on CHK1 kinase, 0.64 nM.

For `N#Cc1cnc(Nc2cc(-c3c(OCC4(CN)CC4)cnc4cccnc34)[nH]n2)cn1` [Example 10, 5-{[5-(3-{[1-(aminomethyl)cyclopropyl]methoxy}-1,5-naphthyridin-4-yl)-1H-pyrazol-3-yl]amino}pyrazine-2-carbonitrile], the IC50 in the test on ES-2 cells worked out at 6.6 nM; at CHK1 kinase, 0.34 nM.

As for `CC1(COc2cnc3cccnc3c2-c2cc(Nc3cnc(C#N)cn3)n[nH]2)CNC1` [Example 11, 5-[(5-{3-[(3-methylazetidin-3-yl)methoxy]-1,5-naphthyridin-4-yl}-1H-pyrazol-3-yl)amino]pyrazine-2-carbonitrile], the values for the IC50 in the test with ES-2 cells and against CHK1 kinase were 14.8 nM and 0.39 nM, respectively.

For the compound `N#Cc1cnc(Nc2cc(-c3c(OCCCN)cnc4c3OCC4)[nH]n2)cn1` [Example 13, 5-({5-[6-(3-aminopropoxy)-2,3-dihydrofuro[3,2-b]pyridin-7-yl]-1H-pyrazol-3-yl}amino)pyrazine-2-carbonitrile], the IC50 with ES-2 cells was determined as 20 nM; against CHK1 kinase, 0.42 nM.

For the compound `CC1(COc2cnc3c(c2-c2cc(Nc4cnc(C#N)cn4)n[nH]2)OCC3)CNC1` [Example 15, 5-[(5-{6-[(3-methylazetidin-3-yl)methoxy]-2,3-dihydrofuro[3,2-b]pyridin-7-yl}-1H-pyrazol-3-yl)amino]pyrazine-2-carbonitrile], the figures for the IC50 in the test on ES-2 cells and against CHK1 kinase were 7.2 nM and 0.23 nM, respectively.

For `Cc1nc2ccc(OCCCN)c(-c3cc(Nc4cnc(C#N)cn4)n[nH]3)c2o1` [Example 16, 5-({5-[6-(3-aminopropoxy)-2-methyl-1,3-benzoxazol-7-yl]-1H-pyrazol-3-yl}amino)pyrazine-2-carbonitrile], the figures for the IC50 in the test on ES-2 cells and on CHK1 kinase were 489 nM and 0.45 nM, respectively.

Take `N#Cc1cnc(Nc2cc(-c3c(OCC4(CN)CC4)ccc4ccnn34)[nH]n2)cn1` [Example 17, 5-{[5-(6-{[1-(aminomethyl)cyclopropyl]methoxy)pyrazolo[1,5-a]pyridin-7-yl)-1H-pyrazol-3-yl]amino}pyrazine-2-carbonitrile]: the IC50 in the test with ES-2 cells came to 3.7 nM; against CHK1 kinase, 0.27 nM.

In the case of `CC1(COc2ccc3ccnn3c2-c2cc(Nc3cnc(C#N)cn3)n[nH]2)CNC1` [Example 18, 5-[(5-{6-[(3-methylazetidin-3-yl)methoxy]pyrazolo[1,5-a]pyridin-7-yl)-1H-pyrazol-3-yl)amino]pyrazine-2-carbonitrile], the IC50 in the test on ES-2 cells is 4.7 nM; against CHK1 kinase, 0.34 nM.

For the compound `N#Cc1cnc(Nc2cc(-c3c(OCC4(CN)CC4)ccc4ccoc34)[nH]n2)cn1` [Example 19, 5-{[5-(6-{[1-(aminomethyl)cyclopropyl]methoxy}-1-benzofuran-7-yl}-1H-pyrazol-3-yl]amino}pyrazine-2-carbonitrile], the IC50 was 4.6 nM in the test on ES-2 cells and 0.26 nM against CHK1 kinase.

Turning to `N#Cc1cnc(Nc2cc(-c3c(OCC4(CN)CC4(F)F)ccc4ccoc34)[nH]n2)cn1` (stereo not drawn) [Example 20, 5-{[5-(6-{[1-(aminomethyl)-2,2-difluorocyclopropyl]methoxy)-1-benzofuran-7-yl)-1H-pyrazol-3-yl]amino}pyrazine-2-carbonitrile], 16.3 nM corresponded to half-maximal inhibition in the test with ES-2 cells (IC50).

As for `N#Cc1cnc(Nc2cc(-c3c(O[C@@H]4CC[C@@H](N)C4)cnc4c3OCC4)[nH]n2)cn1` [Example 21, 5-{[5-(6-{[(1R,3R)-3-aminocyclopentyl]oxy)-2,3-dihydrofuro[3,2-b]pyridin-7-yl)-1H-pyrazol-3-yl]amino}pyrazine-2-carbonitrile], the IC50 with ES-2 cells came out at 11.8 nM.

Turning to `N#Cc1cnc(Nc2cc(-c3c(OCC4(C(F)F)CNC4)cnc4c3OCC4)[nH]n2)cn1` [Example 22, 5-{[5-(6-{[3-(difluoromethyl)azetidin-3-yl]methoxy}-2,3-dihydrofuro[3,2-b]pyridin-7-yl)-1H-pyrazol-3-yl]amino}pyrazine-2-carbonitrile], the IC50 amounted to 13.7 nM with ES-2 cells and 0.39 nM against CHK1 kinase.

Consider `N#Cc1cnc(Nc2cc(-c3c(OCC4(F)CNC4)cnc4c3OCC4)[nH]n2)cn1` [Example 23, 5-[(5-{6-[(3-fluoroazetidin-3-yl)methoxy]-2,3-dihydrofuro[3,2-b]pyridin-7-yl}-1H-pyrazol-3-yl)amino]pyrazine-2-carbonitrile], for which the values for the IC50 in the test with ES-2 cells and at CHK1 kinase were 6.8 nM and 0.3 nM, respectively.

Take `C[C@@H](Oc1cnc2c(c1-c1cc(Nc3cnc(C#N)cn3)n[nH]1)OCC2)C1CNC1` [Example 25, 5-[(5-{6-[(1R)-1-(azetidin-3-yl)ethoxy]-2,3-dihydrofuro[3,2-b]pyridin-7-yl}-1H-pyrazol-3-yl)amino]pyrazine-2-carbonitrile]: the IC50 in the test on ES-2 cells turned out to be 6.4 nM; at CHK1 kinase, 0.43 nM.

Consider `N#Cc1cnc(Nc2cc(-c3c(OC[C@H]4CCNC4)cnc4c3OCC4)[nH]n2)cn1` [Example 26, 5-{[5-(6-{[(3S)-pyrrolidin-3-yl]methoxy}-2,3-dihydrofuro[3,2-b]pyridin-7-yl)-1H-pyrazol-3-yl]amino}pyrazine-2-carbonitrile], for which the IC50 was 9.4 nM in the test with ES-2 cells and 0.34 nM against CHK1 kinase.

Take `CNCCCOc1cnc2c(c1-c1cc(Nc3cnc(C#N)cn3)n[nH]1)OCC2` [Example 27, 5-[(5-{6-[3-(methylamino)propoxy]-2,3-dihydrofuro[3,2-b]pyridin-7-yl}-1H-pyrazol-3-yl)amino]pyrazine-2-carbonitrile]: the IC50 was 8.5 nM in the test with ES-2 cells and 0.22 nM at CHK1 kinase.

Turning to `C[C@@H](CN)COc1cnc2c(c1-c1cc(Nc3cnc(C#N)cn3)n[nH]1)OCC2` [Example 30, 5-[(5-{6-[(2S)-3-amino-2-methylpropoxy]-2,3-dihydrofuro[3,2-b]pyridin-7-yl}-1H-pyrazol-3-yl)amino]pyrazine-2-carbonitrile], the IC50 was 14.8 nM in the test on ES-2 cells and 0.43 nM against CHK1 kinase.
